Assays:
5-HT concentrations [1] = assay: Brain microdialysis, acute oral administration; 5-HT in perfusate by HPLC with electrochemical detection; format: in vivo; details: brain dialysate
Protocol: (§1) Animals with dialysis probes inserted in brain regions were placed in the dialysis apparatus and the probes perfused with artificial cerebrospinal fluid. Samples of perfusate were collected every 20 minutes after an initial 30 minute washout period. Basal samples were collected for 2 hours before administration of drug or vehicle by the oral route. Further samples were collected for up to 4 hours post drug administration. Samples were analysed for 5-HT by HPLC with electrochemical detection.
Data was expressed as a percentage of a pre-injection control, obtained by averaging the last three samples prior to drug/vehicle administration. Transformed data (natural log of percentages) was analysed by ANOVA with repeated measures.

5-HT concentrations [2] = assay: Brain microdialysis after chronic (21 day) administration; 5-HT in perfusate; format: in vivo; details: 10 mg/kg, percentage increase over vehicle treated controls
Protocol: as §1
The method differed from that for acute administration in that animals were treated with fluoxetine or vehicle for 21 days prior to placement in the dialysis apparatus. The subsequent manipulations were as described above. The 5-HT concentration in the treated group was expressed as the percentage increase over vehicle treated controls.

SMILES	% increase in 5-HT concentrations (5-HT concentrations [1]; 10 mg/kg, oral)	% increase in 5-HT concentrations (5-HT concentrations [1]; 10 or 20 mg/kg, oral (maximum possible response))	% increase in 5-HT concentrations (5-HT concentrations [2])
CC1(C)C(=O)N(CCN2CCC(C(=O)c3ccc(F)cc3)CC2)c2ccccc21.Cl [Compound of formula (I), 1-[2-[4-(4-fluorobenzoyl)-1-piperidinyl]ethyl]-1,3-dihydro-3,3-dimethyl-2H-indol-2-one, monohydrochloride]	110%	–	–
CNCCC(Oc1ccc(C(F)(F)F)cc1)c1ccccc1 (stereo not drawn) [Fluoxetine, N-methyl-3-(p-trifluoromethylphenoxy)-3-phenylpropylamine]	–	99%	184%
